According to patent EP0230274A2, “Derivatives of 7-(azabicycloalkyl)-quinoloncarboxylic acid and -naphthyridoncarboxylic acid” (BAYER AG, priority 1986, dated 1987):
In brackets after ≈: the same amount, converted by molar mass. Counter-ions that a name gives are not always drawn. Like-named read-outs stand apart in the source and are kept apart here.

Key:
Assay in all cases: Agar dilution test (Isosensitest agar), MIC
Assay type in all cases: cell-based
[1] = test system: Pseudomonas aerug. W.; details: strain Pseudomonas aerug. W.; Agardilutionstest/Isosensitestagar; read-out: MHK
[2] = test system: E.coli 455/7; details: Escherichia coli; strain E.coli 455/7; Agardilutionstest/Isosensitestagar; read-out: MHK
[3] = test system: Staph. aur. FK 422; details: strain Staph. aur. FK 422; Agardilutionstest/Isosensitestagar; read-out: MHK
Excerpt: (§1) In der nachstehenden Tabelle sind einige MHK-Werte im Vergleich zu 1-Cyclopropyl-6-fluor-1,4-dihydro-4-oxo-7-(1-piperazinyl)-3-chinolincarbonsäure (Ciprofloxacin) angegeben: […]

[4] = test system: Staph. aur. 1756; details: strain Staph. aur. 1756; Agardilutionstest/Isosensitestagar; read-out: MHK
Excerpt: as §1

[5] = test system: Streptoc. faecal. 9790; details: strain Streptoc. faecal. 9790; Agardilutionstest/Isosensitestagar; read-out: MHK
Excerpt: as §1

[6] = test system: Streptoc. faecal. 27101; details: strain Streptoc. faecal. 27101; Agardilutionstest/Isosensitestagar; read-out: MHK
Excerpt: as §1

[7] = test system: Providenicia 12052; details: read-out: MHK
Excerpt: as §1

[8] = test system: Staph. aur. 133; details: strain Staph. aur. 133; Agardilutionstest/Isosensitestagar; read-out: MHK
Excerpt: as §1

[9] = strain Providenicia 12052, Agardilutionstest/Isosensitestagar

O=C(O)c1cn(C2CC2)c2cc(N3CCN4CCC3C4)c(F)cc2c1=O (stereo not drawn) [Beispiel 1, 1-Cyclopropyl-7-(1,4-diazabicyclo[3.2.1]oct-4-yl)-6-fluor-1,4-dihydro-4-oxo-3-chinolincarbonsäureHydrochlorid]
MIC [1]: 0.5 µg/mL | MIC [2]: 2 µg/mL | MIC [3]: 0.25 µg/mL | MIC [4]: 0.25 µg/mL | MIC [5]: 0.25 µg/mL | MIC [6]: 0.25 µg/mL

O=C(O)c1cn(C2CC2)c2c(Cl)c(N3CCN4CCC3C4)c(F)cc2c1=O (stereo not drawn) [Beispiel 3, 8-Chlor-1-cyclopropyl-7-(1,4-diazabicyclo[3.2.1]ocl-4-yl)-6-fluor-1,4-dihydro-4-oxo-3-chinolincarbonäure-Hydrochlorid-Hydrat]
MIC [2]: 0.5 µg/mL | MIC [3]: 0.06 µg/mL | MIC [4]: 0.06 µg/mL | MIC [7, 9]: 8 µg/mL | MIC [5]: 0.06 µg/mL | MIC [6]: 0.06 µg/mL | MIC [8]: 0.06 µg/mL

O=C(O)c1cn(C2CC2)c2c(F)c(N3CCN4CCC3C4)c(F)cc2c1=O (stereo not drawn) [Beispiel 4, 1-Cyclopropyl-7-(1,4-diazabicyclo[3.2.1]oct-4-yl)-6,8-difluor-1,4-dihydro-4-oxo-3-chinolincarbonsäure]
MIC [1]: 0.5 µg/mL (≈ 1.33 µM) | MIC [2]: 0.5 µg/mL (≈ 1.33 µM) | MIC [4]: 0.06 µg/mL (≈ 0.16 µM) | MIC [7, 9]: 8 µg/mL (≈ 21.3 µM) | MIC [5]: 0.25 µg/mL (≈ 0.666 µM) | MIC [8]: 0.06 µg/mL (≈ 0.16 µM)

CN1C2CCC1CN(c1cc3c(cc1F)c(=O)c(C(=O)O)cn3C1CC1)C2 [Beispiel 12, 1-Cyclopropyl-6-fluor-1,4-dihydro-7-(8-methyl-3,8-diazabi-cyclo[3.2.1]oct-3-yl)-4-oxo-3-chinolincarbonsäure]
MIC [1]: 0.5 µg/mL (≈ 1.35 µM) | MIC [2]: 4 µg/mL (≈ 10.8 µM) | MIC [7]: 16 µg/mL (≈ 43.1 µM)

O=C(O)c1cn(C2CC2)c2cc(N3CCNCC3)c(F)cc2c1=O [Ciprofloxacin, 1-Cyclopropyl-6-fluor-1,4-dihydro-4-oxo-7-(1-piperazinyl)-3-chinolincarbonsäure, reference compound]
MIC [1]: 0.5 µg/mL (≈ 1.51 µM) | MIC [2]: 2 µg/mL (≈ 6.04 µM) | MIC [3]: 0.5 µg/mL (≈ 1.51 µM) | MIC [4]: 0.5 µg/mL (≈ 1.51 µM) | MIC [7, 9]: 32 µg/mL (≈ 96.6 µM) | MIC [5]: 0.25 µg/mL (≈ 0.754 µM) | MIC [6]: 0.5 µg/mL (≈ 1.51 µM) | MIC [8]: 0.5 µg/mL (≈ 1.51 µM)
